Legend:
[1] = xn = mol fraction of the nth substance listed; conditions: 101.32 kPa, Liquid
[2] = refractive index (Na D-line) (dimensionless); xn = mol fraction of the nth substance listed; conditions: 101.32 kPa, Liquid

CCCCCl [1-chlorobutane] + CCCCO
Conditions	mass density, 288.15 K [kg/m3]	mass density, 298.15 K [kg/m3]	mass density, 308.15 K [kg/m3]	refractive index, 288.15 K	refractive index, 298.15 K	refractive index, 308.15 K	viscosity, 288.15 K [mPa·s]	viscosity, 298.15 K [mPa·s]	viscosity, 308.15 K [mPa·s]
[1], x2 = 0	892.2	881	869.7	–	–	–	0.472	0.423	0.382
[1], x2 = 0.05	888	876.9	865.7	–	–	–	0.49	0.437	0.388
[1], x2 = 0.1	884.3	873.3	862.3	–	–	–	0.506	0.453	0.41
[1], x2 = 0.2	877	866.3	855.5	–	–	–	0.569	0.499	0.442
[1], x2 = 0.3	869.7	859.4	848.9	–	–	–	0.655	0.569	0.497
[1], x2 = 0.4	862.4	852.4	842.2	–	–	–	0.781	0.665	0.57
[1], x2 = 0.5	854.9	845.3	835.4	–	–	–	0.953	0.798	0.676
[1], x2 = 0.6	847.3	838	828.6	–	–	–	1.196	0.977	0.81
[1], x2 = 0.7	839.4	830.5	821.5	–	–	–	1.528	1.221	1
[1], x2 = 0.8	831.2	822.7	814.1	–	–	–	1.979	1.563	1.251
[1], x2 = 0.9	822.6	814.5	806.3	–	–	–	2.601	2.019	1.584
[1], x2 = 0.95	818.1	810.3	802.3	–	–	–	2.966	2.328	1.784
[2], x2 = 0	–	–	–	1.4045	1.3993	1.3941	–	–	–
[2], x2 = 0.05	–	–	–	1.4041	1.3989	1.3936	–	–	–
[2], x2 = 0.1	–	–	–	1.4039	1.3987	1.3934	–	–	–
[2], x2 = 0.2	–	–	–	1.4035	1.3984	1.3932	–	–	–
[2], x2 = 0.3	–	–	–	1.4031	1.3982	1.3931	–	–	–
[2], x2 = 0.4	–	–	–	1.4029	1.3981	1.3931	–	–	–
[2], x2 = 0.5	–	–	–	1.4027	1.398	1.3932	–	–	–
[2], x2 = 0.6	–	–	–	1.4024	1.3979	1.3932	–	–	–
[2], x2 = 0.7	–	–	–	1.4022	1.3978	1.3933	–	–	–
[2], x2 = 0.8	–	–	–	1.4019	1.3977	1.3933	–	–	–
[2], x2 = 0.9	–	–	–	1.4016	1.3975	1.3933	–	–	–
[2], x2 = 0.95	–	–	–	1.4013	1.3974	1.3933	–	–	–

CCCCCl [1-chlorobutane] + CCCO
Conditions	mass density, 288.15 K [kg/m3]	mass density, 298.15 K [kg/m3]	mass density, 308.15 K [kg/m3]	refractive index, 288.15 K	refractive index, 298.15 K	refractive index, 308.15 K	viscosity, 288.15 K [mPa·s]	viscosity, 298.15 K [mPa·s]	viscosity, 308.15 K [mPa·s]
[1], x2 = 0	892.2	881	869.7	–	–	–	0.472	0.423	0.382
[1], x2 = 0.05	888.3	877.2	866	–	–	–	0.473	0.426	0.384
[1], x2 = 0.1	884.9	873.8	862.6	–	–	–	0.495	0.44	0.395
[1], x2 = 0.2	878.2	867.3	856.2	–	–	–	0.525	0.461	0.409
[1], x2 = 0.3	871.2	860.5	849.7	–	–	–	0.587	0.511	0.447
[1], x2 = 0.4	864	853.5	842.9	–	–	–	0.672	0.576	0.498
[1], x2 = 0.5	856.3	846.1	835.8	–	–	–	0.795	0.67	0.572
[1], x2 = 0.6	848.1	838.3	828.3	–	–	–	0.965	0.802	0.673
[1], x2 = 0.7	839.2	829.8	820.3	–	–	–	1.202	0.977	0.804
[1], x2 = 0.8	829.6	820.7	811.5	–	–	–	1.503	1.206	0.989
[1], x2 = 0.9	819.2	810.7	802	–	–	–	1.94	1.531	1.229
[1], x2 = 0.95	813.5	805.3	796.9	–	–	–	2.2	1.729	1.375
[2], x2 = 0	–	–	–	1.4045	1.3993	1.3941	–	–	–
[2], x2 = 0.05	–	–	–	1.4036	1.3984	1.3931	–	–	–
[2], x2 = 0.1	–	–	–	1.4028	1.3976	1.3923	–	–	–
[2], x2 = 0.2	–	–	–	1.4013	1.3962	1.3909	–	–	–
[2], x2 = 0.3	–	–	–	1.3998	1.3948	1.3895	–	–	–
[2], x2 = 0.4	–	–	–	1.3984	1.3934	1.3882	–	–	–
[2], x2 = 0.5	–	–	–	1.3968	1.3919	1.3869	–	–	–
[2], x2 = 0.6	–	–	–	1.3952	1.3904	1.3855	–	–	–
[2], x2 = 0.7	–	–	–	1.3934	1.3888	1.384	–	–	–
[2], x2 = 0.8	–	–	–	1.3914	1.387	1.3824	–	–	–
[2], x2 = 0.9	–	–	–	1.3892	1.385	1.3807	–	–	–
[2], x2 = 0.95	–	–	–	1.3881	1.384	1.3798	–	–	–

CCCCCl [1-chlorobutane] + CCO
Conditions	mass density, 288.15 K [kg/m3]	mass density, 298.15 K [kg/m3]	mass density, 308.15 K [kg/m3]	refractive index, 288.15 K	refractive index, 298.15 K	refractive index, 308.15 K	viscosity, 288.15 K [mPa·s]	viscosity, 298.15 K [mPa·s]	viscosity, 308.15 K [mPa·s]
[1], x2 = 0	892.2	881	869.7	–	–	–	0.472	0.423	0.382
[1], x2 = 0.05	888.5	877.3	866	–	–	–	0.475	0.424	0.384
[1], x2 = 0.1	885.3	874.2	862.8	–	–	–	0.479	0.428	0.388
[1], x2 = 0.2	878.7	867.7	856.4	–	–	–	0.5	0.442	0.395
[1], x2 = 0.3	871.7	860.8	849.7	–	–	–	0.529	0.465	0.41
[1], x2 = 0.4	864.1	853.4	842.4	–	–	–	0.566	0.493	0.43
[1], x2 = 0.5	855.7	845.2	834.5	–	–	–	0.63	0.543	0.469
[1], x2 = 0.6	846.4	836.1	825.7	–	–	–	0.708	0.601	0.515
[1], x2 = 0.7	835.8	825.9	815.8	–	–	–	0.807	0.68	0.581
[1], x2 = 0.8	823.9	814.4	804.7	–	–	–	0.932	0.781	0.67
[1], x2 = 0.9	810	800.9	791.7	–	–	–	1.099	0.903	0.765
[1], x2 = 0.95	802.2	793.4	784.5	–	–	–	1.209	0.994	0.839
[2], x2 = 0	–	–	–	1.4045	1.3993	1.3941	–	–	–
[2], x2 = 0.05	–	–	–	1.403	1.3978	1.3925	–	–	–
[2], x2 = 0.1	–	–	–	1.4016	1.3964	1.3912	–	–	–
[2], x2 = 0.2	–	–	–	1.3988	1.3937	1.3885	–	–	–
[2], x2 = 0.3	–	–	–	1.3958	1.3907	1.3855	–	–	–
[2], x2 = 0.4	–	–	–	1.3925	1.3875	1.3823	–	–	–
[2], x2 = 0.5	–	–	–	1.389	1.384	1.3788	–	–	–
[2], x2 = 0.6	–	–	–	1.3851	1.3802	1.375	–	–	–
[2], x2 = 0.7	–	–	–	1.3807	1.3759	1.3708	–	–	–
[2], x2 = 0.8	–	–	–	1.3756	1.3711	1.3661	–	–	–
[2], x2 = 0.9	–	–	–	1.3697	1.3653	1.3609	–	–	–
[2], x2 = 0.95	–	–	–	1.3665	1.3624	1.3581	–	–	–
